# Measured values taken from PMC6188661 (Journal of medicinal chemistry, 2013).
# Starred links: 1 amine or outer side, 2 acyl side, 3 side chain; linkers in the order of their positions; H or OH if unused. Non-standard residues stand in square brackets, D forms with d. Residues, ends and D or L forms follow the SMILES beside them. αMeNva(5-ylidene) = C[C@@](CCC=[*:3])(N[*:1])C(=O)[*:2]; S5 = C=CCCC[C@](C)(N)C(=O)O
# Assays:
# [1] = system: HIV-1; settings: 50% cytoprotective activity in HIV-1 infected MT-4 cells
# [2] = system: MT-4 cells; assay: Cytotoxicity in MT-4 cells; type: cell-based; settings: 50% cell-death in same cells (MT-4)
# [3] = molecular target: T1, HIV-1 integrase (IN) (Human immunodeficiency virus type 1 group M subtype B, UniProt P04585); assay: In vitro HIV-1 IN catalytic activity inhibition, strand transfer; type: biochemical
# [4] = molecular target: T1, HIV-1 integrase (IN); assay: In vitro HIV-1 IN catalytic activity inhibition, 3′-processing; type: biochemical
Structure (SMILES),EC50 [1],CC50 [2],IC50 [3],IC50 [4]
C=CCCC[C@](C)(NC(=O)[C@H](CC(C)C)NC(=O)[C@H](CCCCN)NC(=O)[C@H](CC(C)C)NC(=O)[C@](C)(CCCC=C)NC(=O)[C@H](Cc1ccccc1)NC(=O)[C@H](Cc1ccc(O)cc1)NC(=O)[C@H](C)NC(=O)[C@@H](N)[C@@H](C)O)C(=O)NCC(=O)N[C@@H](CCCNC(=N)N)C(=O)N[C@@H](Cc1c[nH]c2ccccc12)C(N)=O [NLH5] (H-TAYF[S5]LKL[S5]GRW-NH2; N-terminus assumed),28 µM,28 µM,6 ± 1 µM,9 ± 1 µM
C=CCC[C@](C)(NC(=O)[C@H](CC(C)C)NC(=O)[C@H](CCCCN)NC(=O)[C@H](CC(C)C)NC(=O)[C@](C)(CCC=C)NC(=O)[C@H](Cc1ccccc1)NC(=O)[C@H](Cc1ccc(O)cc1)NC(=O)[C@H](C)NC(=O)[C@@H](N)[C@@H](C)O)C(=O)NCC(=O)N[C@@H](CCCNC(=N)N)C(=O)N[C@@H](Cc1c[nH]c2ccccc12)C(N)=O [NLH11] (H-TAYF[αMeNva(5-ylidene)]LKL[αMeNva(5-ylidene)]GRW-NH2; N-terminus assumed),> 18 µM,18 µM,68 ± 5 µM,74 ± 11 µM
